Experimental data reported in paper PMC9304232 (Epilepsia, 2022).
Like-named read-outs stand apart in the source and are kept apart here.

Legend:
hNaV1.6 [1] = target: T1, hNaV1.6 (Homo sapiens, UniProt Q9UQD0); assay: ATX‐II‐induced persistent INa, whole‐cell patch clamp; details: for Persistent INa, slope: Hill slope of IC50 fit, hNaV1.6
hNaV1.6 [2] = target: T1, hNaV1.6; assay: Peak INa voltage‐dependent block; details: for Peak INa VDB, slope: Hill slope; for Ratio to persistent INa (peak INa VDB): VDB IC50 / persistent INa IC50
hNaV1.6 [3] = target: T1, hNaV1.6; assay: Peak INa use‐dependent block; format: cell-based; details: for Peak INa UDB, 10 Hz, slope: Hill slope; for Peak INa UDB, 10 Hz, slope / Ratio to persistent INa (peak INa UDB) / Ratio to peak INa TB (peak INa UDB): hNaV1.6; for Ratio to persistent INa (peak INa UDB): UDB IC50 / persistent INa IC50; for Ratio to peak INa TB (peak INa UDB): preference of use‐dependent block over tonic block; for Use‐dependent block at a stimulation frequency of 10 Hz: hNaV1.6, Figure 2E,F
hNaV1.6 [4] = target: T1, hNaV1.6; assay: Peak INa tonic block; format: cell-based; details: for Peak INa TB, slope: Hill slope; for Peak INa TB, slope / Ratio to persistent INa (peak INa TB): hNaV1.6; for Ratio to persistent INa (peak INa TB): TB IC50 / persistent INa IC50
male CD‐1 mice [5] = assay: Mouse spontaneous locomotor activity; format: in vivo; details: for sLMA TC50, free brain: calculated free brain concentration; for sLMA TD50: PRAX‐562 po, CBZ and LTG ip, dose reducing sLMA by 50%
hNaV1.1 [6] = target: T2, hNaV1.1 (Homo sapiens, UniProt P35498); assay: Peak INa voltage‐dependent block, patch clamp; format: cell-based; details: VDB IC50 / persistent IC50
hNaV1.2 [7] = target: T3, hNaV1.2 (Homo sapiens, UniProt Q99250); assay: Peak INa tonic block, patch clamp; format: cell-based; details: TB IC50 / persistent IC50
hNaV1.1 [8] = target: T2, hNaV1.1; assay: Peak INa tonic block, patch clamp; format: cell-based; details: TB IC50 / persistent IC50
hNaV1.2 [9] = target: T3, hNaV1.2; assay: Peak INa voltage‐dependent block, patch clamp; format: cell-based; details: VDB IC50 / persistent IC50
hNaV1.5 [10] = target: T4, hNaV1.5 (Homo sapiens, UniProt Q14524); assay: Peak INa tonic block, patch clamp; format: cell-based; details: TB / persistent IC50
male CD‐1 mice [11] = assay: Protective index; format: in vivo, mouse; details: for PI (plasma TC50/plasma EC50): based on free plasma concentrations
male CD‐1 mice [12] = assay: Mouse maximal electroshock seizure; format: in vivo; details: for EC50: Mus musculus; for MES ED50 (increasing latency to tonic extension seizures): PRAX‐562 po, CBZ and LTG ip
[13] = test system: hippocampal CA1 pyramidal neurons; assay: Evoked action potential firing; format: cell-based; details: wild‐type mouse CA1 neurons
hNaV1.5 [14] = target: T4, hNaV1.5; assay: Peak INa voltage‐dependent block, patch clamp; format: cell-based; details: VDB IC50 / persistent IC50
[15] = test system: mice with Scn8a (NaV1.6‐N1768D/+, NaV1.6‐R1872W/+) or Scn2a (NaV1.2‐Q54) variants; details: Scn8a or Scn2a gain‐of‐function variants; ref [20], [21], [22]; cited from earlier work
[16] = male CD‐1 mice, po, total brain

T1 sequence (Q9UQD0 whole entry): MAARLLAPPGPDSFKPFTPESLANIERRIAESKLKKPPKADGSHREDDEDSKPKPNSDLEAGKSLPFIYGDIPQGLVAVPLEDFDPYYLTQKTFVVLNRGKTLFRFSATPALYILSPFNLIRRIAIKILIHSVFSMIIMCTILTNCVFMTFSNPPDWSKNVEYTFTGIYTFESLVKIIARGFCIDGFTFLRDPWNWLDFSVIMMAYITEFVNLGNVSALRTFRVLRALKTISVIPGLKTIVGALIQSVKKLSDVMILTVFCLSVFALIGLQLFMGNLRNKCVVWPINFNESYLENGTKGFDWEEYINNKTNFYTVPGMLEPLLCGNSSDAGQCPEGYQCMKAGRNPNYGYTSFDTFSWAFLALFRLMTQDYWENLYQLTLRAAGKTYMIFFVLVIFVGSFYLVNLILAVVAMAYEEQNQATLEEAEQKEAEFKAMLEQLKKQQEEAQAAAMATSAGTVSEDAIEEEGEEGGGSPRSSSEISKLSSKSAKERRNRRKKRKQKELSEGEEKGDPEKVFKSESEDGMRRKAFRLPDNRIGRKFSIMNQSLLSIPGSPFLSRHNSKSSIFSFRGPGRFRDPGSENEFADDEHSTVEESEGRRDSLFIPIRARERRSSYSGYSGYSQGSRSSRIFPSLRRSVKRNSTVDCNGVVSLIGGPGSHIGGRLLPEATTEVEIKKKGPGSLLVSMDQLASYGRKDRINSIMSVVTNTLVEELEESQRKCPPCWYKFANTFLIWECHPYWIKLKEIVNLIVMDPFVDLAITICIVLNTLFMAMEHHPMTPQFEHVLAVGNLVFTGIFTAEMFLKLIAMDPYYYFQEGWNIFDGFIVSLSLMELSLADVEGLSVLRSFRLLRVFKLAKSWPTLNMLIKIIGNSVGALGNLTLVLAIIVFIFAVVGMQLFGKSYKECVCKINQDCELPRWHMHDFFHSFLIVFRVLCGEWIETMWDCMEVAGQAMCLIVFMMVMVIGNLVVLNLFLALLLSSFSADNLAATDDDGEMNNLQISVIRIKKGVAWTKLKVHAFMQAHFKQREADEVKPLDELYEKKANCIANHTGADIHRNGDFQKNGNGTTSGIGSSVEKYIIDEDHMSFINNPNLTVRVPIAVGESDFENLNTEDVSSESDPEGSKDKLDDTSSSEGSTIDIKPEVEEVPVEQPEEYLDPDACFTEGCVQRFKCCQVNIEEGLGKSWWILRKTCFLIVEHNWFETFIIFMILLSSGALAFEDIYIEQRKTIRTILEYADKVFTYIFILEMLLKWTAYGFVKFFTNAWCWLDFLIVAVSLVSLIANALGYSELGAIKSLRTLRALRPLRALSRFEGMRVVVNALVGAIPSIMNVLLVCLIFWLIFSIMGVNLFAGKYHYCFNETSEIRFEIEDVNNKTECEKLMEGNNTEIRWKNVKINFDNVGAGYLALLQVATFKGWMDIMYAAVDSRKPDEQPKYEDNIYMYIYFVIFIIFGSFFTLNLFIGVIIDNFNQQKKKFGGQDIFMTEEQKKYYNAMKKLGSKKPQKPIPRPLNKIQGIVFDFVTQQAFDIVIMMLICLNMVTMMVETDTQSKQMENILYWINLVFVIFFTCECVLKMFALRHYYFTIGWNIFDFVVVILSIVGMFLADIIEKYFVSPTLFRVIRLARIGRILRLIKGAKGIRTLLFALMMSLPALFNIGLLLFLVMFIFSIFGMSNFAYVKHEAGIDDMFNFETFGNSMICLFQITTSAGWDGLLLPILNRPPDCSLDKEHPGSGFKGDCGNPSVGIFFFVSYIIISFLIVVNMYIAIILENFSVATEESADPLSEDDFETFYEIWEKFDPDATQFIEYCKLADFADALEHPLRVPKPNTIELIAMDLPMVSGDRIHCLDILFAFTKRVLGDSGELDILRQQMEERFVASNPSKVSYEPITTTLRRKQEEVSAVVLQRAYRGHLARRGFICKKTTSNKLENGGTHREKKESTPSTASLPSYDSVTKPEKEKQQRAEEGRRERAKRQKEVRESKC
T3 sequence (Q99250 whole entry): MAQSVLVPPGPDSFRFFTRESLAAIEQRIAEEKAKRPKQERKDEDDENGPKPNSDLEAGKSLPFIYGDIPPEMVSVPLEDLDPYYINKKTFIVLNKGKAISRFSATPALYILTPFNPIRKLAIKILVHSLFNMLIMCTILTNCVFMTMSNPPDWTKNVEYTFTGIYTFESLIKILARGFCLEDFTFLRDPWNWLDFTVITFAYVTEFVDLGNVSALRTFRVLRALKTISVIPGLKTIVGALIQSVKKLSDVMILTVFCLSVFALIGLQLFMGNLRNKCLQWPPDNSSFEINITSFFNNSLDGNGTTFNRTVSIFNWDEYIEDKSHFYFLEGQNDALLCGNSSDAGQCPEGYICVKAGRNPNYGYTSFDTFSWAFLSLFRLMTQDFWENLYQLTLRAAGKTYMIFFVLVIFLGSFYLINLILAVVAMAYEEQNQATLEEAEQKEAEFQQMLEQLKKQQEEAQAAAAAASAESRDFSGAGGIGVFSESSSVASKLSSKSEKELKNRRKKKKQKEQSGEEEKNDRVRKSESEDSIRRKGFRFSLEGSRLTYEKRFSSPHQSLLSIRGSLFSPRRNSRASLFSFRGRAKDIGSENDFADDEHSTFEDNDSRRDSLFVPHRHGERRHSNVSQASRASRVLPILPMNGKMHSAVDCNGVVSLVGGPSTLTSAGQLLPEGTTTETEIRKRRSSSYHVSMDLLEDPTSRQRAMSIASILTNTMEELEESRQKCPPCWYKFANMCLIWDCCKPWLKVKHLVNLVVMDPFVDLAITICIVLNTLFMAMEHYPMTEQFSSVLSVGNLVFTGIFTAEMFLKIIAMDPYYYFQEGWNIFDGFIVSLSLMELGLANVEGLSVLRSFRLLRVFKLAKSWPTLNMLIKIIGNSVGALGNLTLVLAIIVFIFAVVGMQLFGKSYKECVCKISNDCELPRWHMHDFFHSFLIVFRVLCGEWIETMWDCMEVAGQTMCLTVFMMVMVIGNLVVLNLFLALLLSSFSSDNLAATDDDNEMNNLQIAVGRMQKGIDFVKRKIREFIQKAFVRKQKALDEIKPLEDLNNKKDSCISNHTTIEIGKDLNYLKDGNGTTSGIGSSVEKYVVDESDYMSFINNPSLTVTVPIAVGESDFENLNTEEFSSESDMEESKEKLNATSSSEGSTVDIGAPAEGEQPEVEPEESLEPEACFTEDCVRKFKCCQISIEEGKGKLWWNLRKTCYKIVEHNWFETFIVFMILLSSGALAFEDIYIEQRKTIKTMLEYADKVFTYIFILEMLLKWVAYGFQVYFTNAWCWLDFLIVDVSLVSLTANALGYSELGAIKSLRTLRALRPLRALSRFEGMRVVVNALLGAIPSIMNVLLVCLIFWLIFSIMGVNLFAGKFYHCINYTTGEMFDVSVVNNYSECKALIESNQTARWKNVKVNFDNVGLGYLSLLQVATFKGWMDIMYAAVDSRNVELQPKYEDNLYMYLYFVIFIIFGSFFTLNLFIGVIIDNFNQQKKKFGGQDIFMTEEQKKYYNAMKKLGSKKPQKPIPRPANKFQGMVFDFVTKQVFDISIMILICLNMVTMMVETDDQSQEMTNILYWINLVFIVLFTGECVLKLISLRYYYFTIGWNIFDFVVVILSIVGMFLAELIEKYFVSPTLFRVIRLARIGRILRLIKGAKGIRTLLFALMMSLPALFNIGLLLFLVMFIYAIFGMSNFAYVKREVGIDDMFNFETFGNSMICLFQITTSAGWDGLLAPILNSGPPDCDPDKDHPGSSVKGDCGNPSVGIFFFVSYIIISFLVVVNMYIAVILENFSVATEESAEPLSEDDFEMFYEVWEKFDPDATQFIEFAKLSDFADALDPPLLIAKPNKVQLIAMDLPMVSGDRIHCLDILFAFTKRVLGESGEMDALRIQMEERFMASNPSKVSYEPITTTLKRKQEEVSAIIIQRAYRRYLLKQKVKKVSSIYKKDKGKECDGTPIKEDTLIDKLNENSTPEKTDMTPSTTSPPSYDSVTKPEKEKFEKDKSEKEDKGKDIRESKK

Compound: COC[C@@H](NC(C)=O)C(=O)NCc1ccccc1 [Lacosamide]
- Persistent INa, slope (hNaV1.6 [1]): .9
- Peak INa VDB, slope (hNaV1.6 [2]): 1.2
- Ratio to persistent INa (peak INa VDB) (hNaV1.6 [2]): .3
- Peak INa UDB, 10 Hz, slope (hNaV1.6 [3]): 1.3
- Ratio to persistent INa (peak INa UDB) (hNaV1.6 [3]): .8

Compound: NC(=O)N1c2ccccc2CC(=O)c2ccccc21 [Oxcarbazepine]
- Persistent INa, slope (hNaV1.6 [1]): 1.0
- Peak INa TB, slope (hNaV1.6 [4]): 1.7
- Ratio to persistent INa (peak INa TB) (hNaV1.6 [4]): 8
- Peak INa VDB, slope (hNaV1.6 [2]): 1.1
- Ratio to persistent INa (peak INa VDB) (hNaV1.6 [2]): .3

Compound: O=C1NC(=O)C(c2ccccc2)(c2ccccc2)N1 [Phenytoin]
- Persistent INa, slope (hNaV1.6 [1]): .8
- Peak INa VDB, slope (hNaV1.6 [2]): 1.0
- Ratio to persistent INa (peak INa VDB) (hNaV1.6 [2]): .8
- Peak INa UDB, 10 Hz, slope (hNaV1.6 [3]): .6
- Ratio to persistent INa (peak INa UDB) (hNaV1.6 [3]): 15

Compound: CCOC(F)(F)c1nnc2cnc(-c3cnc(OCC(F)(F)F)c(F)c3)cn12 [PRAX‐562, 3‐[ethoxydifluoromethyl]‐6‐[5‐fluoro‐6‐(2,2,2‐trifluoroethoxy)pyridin‐3‐yl]‐[1,2,4]triazolo[4,3‐a]pyrazine]
- Persistent INa, slope (hNaV1.6 [1]): 1.2
- Peak INa TB, slope (hNaV1.6 [4]): 1.0
- IC50 (hNaV1.6 [4]; Peak INa TB, IC50, hNaV1.6 tonic block, .1 Hz): 8.47 µM
- Ratio to persistent INa (peak INa TB) (hNaV1.6 [4]): 60
- Effect on locomotor function (male CD‐1 mice [5]; 10 mg/kg po): no effect
- Distance moved in sLMA (male CD‐1 mice [5]; 20 and 40 mg/kg po): reductions in the distance moved
- sLMA TC50, plasma, free (male CD‐1 mice [5]; male CD‐1 mice, po, free plasma): 308.9 nmol·L^–1
- sLMA TC50, brain (male CD‐1 mice [5]; [16]): 1899 ng/g
- sLMA TC50, plasma (male CD‐1 mice [5]; male CD‐1 mice, po, total plasma): 1.553 µg/mL
- sLMA TC50, free brain (male CD‐1 mice [5]; male CD‐1 mice): 69.7 nmol·L^–1
- Ratio to Persistent INa (Peak INa VDB), hNaV1.1 (hNaV1.1 [6]): 6.3
- Ratio to Persistent INa (Peak INa TB), hNaV1.2 (hNaV1.2 [7]): 80
- Ratio to Persistent INa (Peak INa TB), hNaV1.1 (hNaV1.1 [8]): 173
- Ratio to Persistent INa (Peak INa VDB), hNaV1.2 (hNaV1.2 [9]): 8.2
- Ratio to Persistent INa (Peak INa TB), hNaV1.5 (hNaV1.5 [10]): > 174
- PI wider compared to CBZ and LTG (male CD‐1 mice [11]; acute, MES and sLMA models): 3 ×
- PI (plasma TC50/plasma EC50) (male CD‐1 mice [11]): ~17
- Mice that did not exhibit tonic seizures (male CD‐1 mice [12]; 10 mg/kg po, 30 min before MES): 11 of 12
- EC50 (male CD‐1 mice [12]; po, read-out: MES EC50, plasma): 0.0901 µg/mL
- EC50 (male CD‐1 mice [12]; po, read-out: MES EC50, plasma, free): 0.0179 µM
- EC50 (male CD‐1 mice [12]; read-out: MES EC50, free brain): 0.0043 µM
- MES EC50, brain (male CD‐1 mice [12]; [16]): 116 ng/g
- Intrinsic excitability, number of evoked APs ([13]; .3 µmol·L^–1): significantly reduced
- AP amplitude ([13]; .3 µmol·L^–1, +200 pA): minimal effects
- Peak INa VDB, slope (hNaV1.6 [2]): 1.0
- Ratio to persistent INa (peak INa VDB) (hNaV1.6 [2]): 2.2
- Ratio to Persistent INa (Peak INa VDB), hNaV1.5 (hNaV1.5 [14]): 5.8
- Peak INa UDB, 10 Hz, slope (hNaV1.6 [3]): 1.3
- Ratio to persistent INa (peak INa UDB) (hNaV1.6 [3]): 2
- Ratio to peak INa TB (peak INa UDB) (hNaV1.6 [3]): 31

Compound: NC(=O)N1c2ccccc2C=Cc2ccccc21 [Carbamazepine, carbamazepine]
- Persistent INa, slope (hNaV1.6 [1]): 1.1
- IC50 (hNaV1.6 [1]; Persistent INa, IC50, hNaV1.6, 200 nmol·L^–1 ATX‐II, holding −120 mV): 77.5 µM
- Peak INa TB, slope (hNaV1.6 [4]): 1.0
- Sedation/sLMA at the dose required for complete seizure prevention (male CD‐1 mice [5]; ip): significant reduction in sLMA
- sLMA TD50 (male CD‐1 mice [5]; male CD‐1 mice, listed as CBZ): 26.5 mg/kg
- sLMA TC50, free brain (male CD‐1 mice [5]; male CD‐1 mice): 14 350 nmol·L^–1
- PI (plasma TC50/plasma EC50) (male CD‐1 mice [11]): 3.4
- EC50 (male CD‐1 mice [12]; read-out: MES EC50, free brain): 2.41 µM
- MES ED50 (increasing latency to tonic extension seizures) (male CD‐1 mice [12]; male CD‐1 mice, listed as CBZ): 3.4 mg/kg
- Peak INa VDB, slope (hNaV1.6 [2]): .9
- Peak INa UDB, 10 Hz, slope (hNaV1.6 [3]): .9
- Use‐dependent block at a stimulation frequency of 10 Hz (hNaV1.6 [3]): not observed

Compound: Nc1nnc(-c2cccc(Cl)c2Cl)c(N)n1 [Lamotrigine, lamotrigine]
- Persistent INa, slope (hNaV1.6 [1]): 1.0
- Peak INa TB, slope (hNaV1.6 [4]): .8
- sLMA TD50 (male CD‐1 mice [5]; male CD‐1 mice, listed as LTG): 37.6 mg/kg
- sLMA TC50, free brain (male CD‐1 mice [5]; male CD‐1 mice): 12 853 nmol·L^–1
- EC50 (male CD‐1 mice [12]; read-out: MES EC50, free brain): 2.75 µM
- MES ED50 (increasing latency to tonic extension seizures) (male CD‐1 mice [12]; male CD‐1 mice, listed as LTG): 5.0 mg/kg
- Peak INa VDB, slope (hNaV1.6 [2]): .9
- Peak INa UDB, 10 Hz, slope (hNaV1.6 [3]): 1.0
- Use‐dependent block at a stimulation frequency of 10 Hz (hNaV1.6 [3]): not observed

Compound: NC(=O)O[C@@H](Cn1ncnn1)c1ccccc1Cl [Cenobamate]
- Persistent INa, slope (hNaV1.6 [1]): 1.1
- Peak INa TB, slope (hNaV1.6 [4]): 1.1
- Ratio to persistent INa (peak INa TB) (hNaV1.6 [4]): 24
- Peak INa VDB, slope (hNaV1.6 [2]): .9
- Ratio to persistent INa (peak INa VDB) (hNaV1.6 [2]): .9
- Peak INa UDB, 10 Hz, slope (hNaV1.6 [3]): .7
- Ratio to persistent INa (peak INa UDB) (hNaV1.6 [3]): 11
- Ratio to peak INa TB (peak INa UDB) (hNaV1.6 [3]): 2.3

Compound: FC(F)(F)Oc1ccc(-c2ccc3nnc(C(F)(F)F)n3c2)cc1 [PRAX‐330]
- Seizures and premature death in NaV DEE mouse models [15]: protected mice from seizures and premature death
